# Measurements reported in publication PMC8632988, “Inhibition of SYK and cSrc kinases can protect bone and cartilage in preclinical models of osteoarthritis and rheumatoid arthritis” (Scientific Reports, 2021).
# Experiments:
# Assay in all cases: Kinase selectivity profile assay
# Assay type in all cases: biochemical
# Aurora C = biological target: T1, Aurora C (Homo sapiens, UniProt Q9UQB9); conditions: 500 nM; relative to DMSO; read-out: Residual enzymatic activity
# T1 construct: purchased Reaction Biology Corporation
# In short: (§1)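 Radiometric kinase assay run by a standard protocol. Unbound phosphate was removed by washing filters in phosphoric acid, and product radioactivity gave percent remaining kinase activity versus DMSO vehicle reactions. Run in duplicate.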
# CAMKK1 = biological target: T2, CAMKK1 (Homo sapiens, UniProt Q8N5S9); conditions: 500 nM; relative to DMSO; read-out: Residual enzymatic activity
# T2 construct: purchased Reaction Biology Corporation
# In short: as §1
# CDK2/cyclin A = biological target: T3, CDK2/cyclin A (Homo sapiens, UniProt P24941); conditions: 500 nM; relative to DMSO; read-out: Residual enzymatic activity
# T3 construct: purchased Reaction Biology Corporation
# In short: as §1
# CDK3/cyclin E = biological target: T4, CDK3/cyclin E (Homo sapiens, UniProt Q00526); conditions: 500 nM; relative to DMSO; read-out: Residual enzymatic activity
# T4 construct: purchased Reaction Biology Corporation
# In short: as §1
# CDK7/cyclin H = biological target: T5, CDK7/cyclin H (Homo sapiens, UniProt P50613); conditions: 500 nM; relative to DMSO; read-out: Residual enzymatic activity
# T5 construct: purchased Reaction Biology Corporation
# In short: as §1
# DLK/MAP3K12 = biological target: T6, DLK/MAP3K12 (Homo sapiens, UniProt Q12852); conditions: 500 nM; relative to DMSO; read-out: Residual enzymatic activity
# T6 construct: purchased Reaction Biology Corporation
# In short: as §1
# DMPK = biological target: T7, DMPK (Homo sapiens, UniProt Q09013); conditions: 500 nM; relative to DMSO; read-out: Residual enzymatic activity
# T7 construct: purchased Reaction Biology Corporation
# In short: as §1
# EPHA1 = biological target: T8, EPHA1 (Homo sapiens, UniProt P21709); conditions: for remaining activity at 0.5 µM: 500 nM, relative to DMSO, read-out: Residual enzymatic activity
# T8 construct: purchased Reaction Biology Corporation (assay service)
# T8 sequence (P21709 26-976): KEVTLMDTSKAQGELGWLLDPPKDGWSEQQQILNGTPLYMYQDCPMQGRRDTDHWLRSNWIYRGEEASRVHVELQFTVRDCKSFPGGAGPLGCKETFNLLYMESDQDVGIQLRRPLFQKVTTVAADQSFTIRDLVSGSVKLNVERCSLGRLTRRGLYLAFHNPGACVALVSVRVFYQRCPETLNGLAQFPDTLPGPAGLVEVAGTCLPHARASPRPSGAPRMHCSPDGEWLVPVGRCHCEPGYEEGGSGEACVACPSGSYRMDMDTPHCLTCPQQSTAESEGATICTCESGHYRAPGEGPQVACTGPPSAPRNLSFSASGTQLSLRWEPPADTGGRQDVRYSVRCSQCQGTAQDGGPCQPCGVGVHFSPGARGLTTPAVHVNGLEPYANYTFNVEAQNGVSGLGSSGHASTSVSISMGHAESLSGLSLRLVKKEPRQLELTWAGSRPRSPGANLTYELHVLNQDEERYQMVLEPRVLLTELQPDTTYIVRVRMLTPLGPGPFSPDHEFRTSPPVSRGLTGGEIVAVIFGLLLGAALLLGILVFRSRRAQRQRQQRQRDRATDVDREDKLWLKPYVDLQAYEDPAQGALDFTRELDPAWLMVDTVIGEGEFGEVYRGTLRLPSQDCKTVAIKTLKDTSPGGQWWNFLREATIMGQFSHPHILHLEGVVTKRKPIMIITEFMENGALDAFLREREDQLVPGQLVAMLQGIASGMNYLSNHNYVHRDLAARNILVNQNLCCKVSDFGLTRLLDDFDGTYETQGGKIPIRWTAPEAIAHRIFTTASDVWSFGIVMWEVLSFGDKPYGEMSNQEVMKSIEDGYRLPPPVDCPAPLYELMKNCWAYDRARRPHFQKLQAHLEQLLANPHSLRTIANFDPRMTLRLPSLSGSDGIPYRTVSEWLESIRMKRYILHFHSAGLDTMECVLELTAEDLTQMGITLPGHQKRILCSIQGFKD
# In short: as §1
# EPHA3 = biological target: T9, EPHA3 (Homo sapiens, UniProt P29320); conditions: 500 nM, relative to DMSO
# T9 construct: purchased Reaction Biology Corporation
# In short: as §1
# EPHA4 = biological target: T10, EPHA4 (Homo sapiens, UniProt P54764); conditions: 500 nM, relative to DMSO; for remaining activity at 0.5 µM: read-out: Residual enzymatic activity
# T10 construct: purchased Reaction Biology Corporation
# T10 sequence (P54764 20-986): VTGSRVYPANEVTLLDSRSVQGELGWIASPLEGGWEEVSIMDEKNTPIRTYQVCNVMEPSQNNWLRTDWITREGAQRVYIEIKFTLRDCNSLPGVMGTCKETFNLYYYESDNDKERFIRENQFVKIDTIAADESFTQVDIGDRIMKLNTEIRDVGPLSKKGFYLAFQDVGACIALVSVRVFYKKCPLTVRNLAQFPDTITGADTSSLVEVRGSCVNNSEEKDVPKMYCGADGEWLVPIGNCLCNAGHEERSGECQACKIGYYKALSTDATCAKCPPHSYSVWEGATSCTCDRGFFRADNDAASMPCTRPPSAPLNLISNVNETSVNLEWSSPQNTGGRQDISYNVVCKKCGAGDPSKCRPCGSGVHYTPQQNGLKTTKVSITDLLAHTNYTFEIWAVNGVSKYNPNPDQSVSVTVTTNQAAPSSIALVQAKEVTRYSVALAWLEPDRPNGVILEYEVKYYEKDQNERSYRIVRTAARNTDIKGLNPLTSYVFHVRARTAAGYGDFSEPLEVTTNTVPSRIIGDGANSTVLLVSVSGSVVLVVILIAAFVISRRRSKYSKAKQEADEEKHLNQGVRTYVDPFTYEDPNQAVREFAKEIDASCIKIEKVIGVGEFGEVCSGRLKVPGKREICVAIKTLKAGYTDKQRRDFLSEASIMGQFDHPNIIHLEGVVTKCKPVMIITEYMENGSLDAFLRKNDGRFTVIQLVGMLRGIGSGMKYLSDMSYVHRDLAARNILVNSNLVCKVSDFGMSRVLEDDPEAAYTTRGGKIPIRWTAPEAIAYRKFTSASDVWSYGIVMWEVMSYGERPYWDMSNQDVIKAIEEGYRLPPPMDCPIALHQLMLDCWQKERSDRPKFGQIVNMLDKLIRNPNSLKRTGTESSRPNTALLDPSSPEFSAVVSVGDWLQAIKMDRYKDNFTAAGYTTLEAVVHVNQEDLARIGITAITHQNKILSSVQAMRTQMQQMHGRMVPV
# In short: as §1
# ERK2/MAPK1 = biological target: T11, ERK2/MAPK1 (Homo sapiens, UniProt P28482); conditions: 500 nM; relative to DMSO; read-out: Residual enzymatic activity
# T11 construct: purchased Reaction Biology Corporation
# T11 sequence (P28482 whole entry): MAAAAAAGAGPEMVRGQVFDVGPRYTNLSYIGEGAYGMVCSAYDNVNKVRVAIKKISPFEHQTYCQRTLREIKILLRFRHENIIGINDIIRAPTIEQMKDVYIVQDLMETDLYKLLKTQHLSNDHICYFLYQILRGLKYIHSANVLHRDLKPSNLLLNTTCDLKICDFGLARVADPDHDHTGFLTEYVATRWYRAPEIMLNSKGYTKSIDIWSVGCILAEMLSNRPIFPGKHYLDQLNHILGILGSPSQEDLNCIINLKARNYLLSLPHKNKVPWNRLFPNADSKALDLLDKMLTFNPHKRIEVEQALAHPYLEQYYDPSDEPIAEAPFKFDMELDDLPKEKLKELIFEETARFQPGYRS
# In short: as §1
# FMS = biological target: T12, FMS (Homo sapiens, UniProt P07333); conditions: 500 nM; relative to DMSO; read-out: Residual enzymatic activity
# T12 construct: purchased Reaction Biology Corporation
# In short: as §1
# HGK/MAP4K4 = biological target: T13, HGK/MAP4K4 (Homo sapiens, UniProt O95819); conditions: 500 nM; relative to DMSO; read-out: Residual enzymatic activity
# T13 construct: purchased Reaction Biology Corporation
# In short: as §1
# HIPK1 = biological target: T14, HIPK1 (Homo sapiens, UniProt Q86Z02); conditions: 500 nM; relative to DMSO; read-out: Residual enzymatic activity
# T14 construct: purchased Reaction Biology Corporation
# In short: as §1
# JNK3 = biological target: T15, JNK3 (Homo sapiens, UniProt P53779); conditions: 500 nM; relative to DMSO; read-out: Residual enzymatic activity
# T15 construct: purchased Reaction Biology Corporation
# In short: as §1
# MUSK = biological target: T16, MUSK (Homo sapiens, UniProt O15146); conditions: 500 nM; relative to DMSO; read-out: Residual enzymatic activity
# T16 construct: purchased Reaction Biology Corporation
# In short: as §1
# NEK6 = biological target: T17, NEK6 (Homo sapiens, UniProt Q9HC98); conditions: 500 nM; relative to DMSO; read-out: Residual enzymatic activity
# T17 construct: purchased Reaction Biology Corporation
# In short: as §1
# PBK/TOPK = biological target: T18, PBK/TOPK (Homo sapiens, UniProt Q96KB5); conditions: 500 nM; relative to DMSO; read-out: Residual enzymatic activity
# T18 construct: purchased Reaction Biology Corporation
# T18 sequence (Q96KB5 whole entry): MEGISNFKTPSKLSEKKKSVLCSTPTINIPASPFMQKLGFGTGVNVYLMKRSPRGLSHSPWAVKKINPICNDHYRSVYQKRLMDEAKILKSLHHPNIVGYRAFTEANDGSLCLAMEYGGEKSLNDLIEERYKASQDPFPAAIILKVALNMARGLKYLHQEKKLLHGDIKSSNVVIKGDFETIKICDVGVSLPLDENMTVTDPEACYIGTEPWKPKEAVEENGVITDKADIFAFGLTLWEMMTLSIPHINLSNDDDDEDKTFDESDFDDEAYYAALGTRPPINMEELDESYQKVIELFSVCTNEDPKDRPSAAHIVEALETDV
# In short: as §1
# PKAcb = biological target: T19, PKAcb (Homo sapiens, UniProt P22694); conditions: 500 nM; relative to DMSO; read-out: Residual enzymatic activity
# T19 construct: purchased Reaction Biology Corporation
# In short: as §1
# PKCa = biological target: T20, PKCa (Homo sapiens, UniProt P17252); conditions: 500 nM; relative to DMSO; read-out: Residual enzymatic activity
# T20 construct: purchased Reaction Biology Corporation
# In short: as §1
# PKN2/PRK2 = biological target: T21, PKN2/PRK2 (Homo sapiens, UniProt Q16513); conditions: 500 nM; relative to DMSO; read-out: Residual enzymatic activity
# T21 construct: purchased Reaction Biology Corporation
# In short: as §1
# PLK2 = biological target: T22, PLK2 (Homo sapiens, UniProt Q9NYY3); conditions: 500 nM; relative to DMSO; read-out: Residual enzymatic activity
# T22 construct: purchased Reaction Biology Corporation
# In short: as §1
# RSK1 = biological target: T23, RSK1 (Homo sapiens, UniProt Q15418); conditions: 500 nM; relative to DMSO; read-out: Residual enzymatic activity
# T23 construct: purchased Reaction Biology Corporation
# In short: as §1
# SGK2 = biological target: T24, SGK2 (Homo sapiens, UniProt Q9HBY8); conditions: 500 nM; relative to DMSO; read-out: Residual enzymatic activity
# T24 construct: purchased Reaction Biology Corporation
# In short: as §1
# SRPK1 = biological target: T25, SRPK1 (Homo sapiens, UniProt Q96SB4); conditions: 500 nM; relative to DMSO; read-out: Residual enzymatic activity
# T25 construct: purchased Reaction Biology Corporation
# T25 sequence (Q96SB4 whole entry): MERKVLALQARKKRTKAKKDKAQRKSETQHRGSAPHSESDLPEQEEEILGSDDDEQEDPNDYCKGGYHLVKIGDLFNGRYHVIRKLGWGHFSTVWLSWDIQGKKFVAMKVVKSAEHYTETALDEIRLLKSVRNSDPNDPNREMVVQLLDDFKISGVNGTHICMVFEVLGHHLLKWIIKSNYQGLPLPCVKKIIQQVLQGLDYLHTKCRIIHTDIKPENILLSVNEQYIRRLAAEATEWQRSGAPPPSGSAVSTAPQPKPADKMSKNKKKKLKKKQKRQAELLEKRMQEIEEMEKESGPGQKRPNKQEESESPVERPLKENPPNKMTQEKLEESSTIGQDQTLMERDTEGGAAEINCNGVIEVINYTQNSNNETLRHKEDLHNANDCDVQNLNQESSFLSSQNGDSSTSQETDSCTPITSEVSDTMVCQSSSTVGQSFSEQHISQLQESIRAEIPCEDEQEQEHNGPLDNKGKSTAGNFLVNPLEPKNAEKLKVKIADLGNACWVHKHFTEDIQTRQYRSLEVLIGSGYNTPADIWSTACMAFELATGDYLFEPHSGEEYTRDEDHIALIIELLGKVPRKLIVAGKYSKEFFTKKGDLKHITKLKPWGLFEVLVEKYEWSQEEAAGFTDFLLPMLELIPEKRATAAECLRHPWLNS
# In short: as §1
# TGFBR2 = biological target: T26, TGFBR2 (Homo sapiens, UniProt P37173); conditions: 500 nM; relative to DMSO; read-out: Residual enzymatic activity
# T26 construct: purchased Reaction Biology Corporation
# In short: as §1
# WEE1 = biological target: T27, WEE1 (Homo sapiens, UniProt P30291); conditions: 500 nM; relative to DMSO; read-out: Residual enzymatic activity
# T27 construct: purchased Reaction Biology Corporation
# In short: as §1
# WNK3 = biological target: T28, WNK3 (Homo sapiens, UniProt Q9BYP7); conditions: 500 nM; relative to DMSO; read-out: Residual enzymatic activity
# T28 construct: purchased Reaction Biology Corporation
# T28 sequence (Q9BYP7 whole entry): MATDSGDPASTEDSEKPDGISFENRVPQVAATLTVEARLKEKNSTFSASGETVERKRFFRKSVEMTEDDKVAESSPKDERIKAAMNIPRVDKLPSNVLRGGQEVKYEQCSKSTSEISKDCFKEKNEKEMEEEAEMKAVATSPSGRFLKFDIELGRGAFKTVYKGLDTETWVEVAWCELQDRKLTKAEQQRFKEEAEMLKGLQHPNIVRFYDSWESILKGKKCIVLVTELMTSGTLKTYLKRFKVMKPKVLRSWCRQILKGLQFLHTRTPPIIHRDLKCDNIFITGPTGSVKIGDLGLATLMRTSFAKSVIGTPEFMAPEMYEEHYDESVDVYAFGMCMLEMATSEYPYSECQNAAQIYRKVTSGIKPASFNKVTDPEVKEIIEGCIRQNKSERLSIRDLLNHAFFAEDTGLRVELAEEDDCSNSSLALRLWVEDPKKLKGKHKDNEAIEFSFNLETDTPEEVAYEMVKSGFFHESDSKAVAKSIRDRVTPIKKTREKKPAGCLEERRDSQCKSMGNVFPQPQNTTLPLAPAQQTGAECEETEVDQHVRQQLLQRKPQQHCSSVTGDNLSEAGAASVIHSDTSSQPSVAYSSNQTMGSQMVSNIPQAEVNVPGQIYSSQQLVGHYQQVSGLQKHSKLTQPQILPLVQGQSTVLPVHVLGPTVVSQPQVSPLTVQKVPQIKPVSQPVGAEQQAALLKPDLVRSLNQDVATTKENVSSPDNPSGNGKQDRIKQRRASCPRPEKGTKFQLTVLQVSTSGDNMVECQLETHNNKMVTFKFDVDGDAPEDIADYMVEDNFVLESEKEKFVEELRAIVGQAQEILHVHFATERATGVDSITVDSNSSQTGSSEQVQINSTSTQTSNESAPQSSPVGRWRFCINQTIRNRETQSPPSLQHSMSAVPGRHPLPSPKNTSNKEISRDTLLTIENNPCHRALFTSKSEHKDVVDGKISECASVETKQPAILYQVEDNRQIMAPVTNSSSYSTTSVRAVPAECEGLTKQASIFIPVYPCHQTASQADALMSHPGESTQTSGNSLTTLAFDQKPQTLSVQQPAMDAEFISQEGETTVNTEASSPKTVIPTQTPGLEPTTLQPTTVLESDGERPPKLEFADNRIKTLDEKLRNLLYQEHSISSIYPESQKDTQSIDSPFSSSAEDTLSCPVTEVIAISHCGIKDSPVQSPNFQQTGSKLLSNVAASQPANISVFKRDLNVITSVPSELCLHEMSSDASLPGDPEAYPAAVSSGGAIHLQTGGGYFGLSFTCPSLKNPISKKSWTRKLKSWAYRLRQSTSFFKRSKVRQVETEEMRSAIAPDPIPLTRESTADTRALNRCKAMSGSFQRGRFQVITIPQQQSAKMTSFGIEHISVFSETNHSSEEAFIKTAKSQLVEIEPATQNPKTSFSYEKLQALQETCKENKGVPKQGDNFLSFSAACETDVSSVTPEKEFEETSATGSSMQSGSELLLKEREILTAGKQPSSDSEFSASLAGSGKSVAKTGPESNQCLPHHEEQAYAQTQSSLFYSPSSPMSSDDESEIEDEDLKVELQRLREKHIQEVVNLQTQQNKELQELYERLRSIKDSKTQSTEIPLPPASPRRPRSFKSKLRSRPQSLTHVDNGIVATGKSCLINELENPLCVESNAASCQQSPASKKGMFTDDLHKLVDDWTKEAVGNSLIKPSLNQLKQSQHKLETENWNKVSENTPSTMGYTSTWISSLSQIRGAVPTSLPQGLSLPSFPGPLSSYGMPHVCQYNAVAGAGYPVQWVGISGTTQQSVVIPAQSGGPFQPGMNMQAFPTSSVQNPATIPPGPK
# In short: as §1
SMILES,remaining activity at 0.5 µM (Aurora C) [%],remaining activity at 0.5 µM (CAMKK1) [%],remaining activity at 0.5 µM (CDK2/cyclin A) [%],remaining activity at 0.5 µM (CDK3/cyclin E) [%],remaining activity at 0.5 µM (CDK7/cyclin H) [%],remaining activity at 0.5 µM (DLK/MAP3K12) [%],remaining activity at 0.5 µM (DMPK) [%],remaining activity at 0.5 µM (EPHA1) [%],remaining activity at 0.5 µM (EPHA4) [%],remaining activity at 0.5 µM (ERK2/MAPK1) [%],remaining activity at 0.5 µM (FMS) [%],remaining activity at 0.5 µM (HGK/MAP4K4) [%],remaining activity at 0.5 µM (HIPK1) [%],remaining activity at 0.5 µM (JNK3) [%],remaining activity at 0.5 µM (MUSK) [%],remaining activity at 0.5 µM (NEK6) [%],remaining activity at 0.5 µM (PBK/TOPK) [%],remaining activity at 0.5 µM (PKAcb) [%],remaining activity at 0.5 µM (PKCa) [%],remaining activity at 0.5 µM (PKN2/PRK2) [%],other results
COc1cc(Nc2ncnc(Nc3cc4c(cn3)NC(=O)C(C)(C)O4)n2)cc(OC)c1OC [MT-SYK-03],89.2,102,83.1,99,99.6,83.7,94.3,48.3,> 54,90.6,51.1,78.4,97.4,96.4,79.9,103,102,98.4,92.3,95.6,"IC50 (EPHA1; 10-dose mode, threefold serial dilution from 10 μM): 457 nM; Residual enzymatic activity (EPHA3): 91.8%; Residual enzymatic activity (EPHA4): 58.1%; remaining activity at 0.5 µM (PLK2): 81.6%; remaining activity at 0.5 µM (RSK1): 105%; remaining activity at 0.5 µM (SGK2): 110%; remaining activity at 0.5 µM (SRPK1): 108%; remaining activity at 0.5 µM (TGFBR2): 116%; remaining activity at 0.5 µM (WEE1): 108%; remaining activity at 0.5 µM (WNK3): 82.4%"
"COc1cc(Nc2ncc(F)c(Nc3ccc4c(n3)NC(=O)C(C)(C)O4)n2)cc(OC)c1OC [R406, reference compound]",42.1,91.9,47.6,90.3,81.7,70.6,90.5,25.4,42.8,88,17.2,75.3,90.8,114,62.1,70.5,100,70.1,58.3,85.4,remaining activity at 0.5 µM (EPHA3; read-out: Residual enzymatic activity): 85.6%; remaining activity at 0.5 µM (PLK2): 19.4%; remaining activity at 0.5 µM (RSK1): 66.9%; remaining activity at 0.5 µM (SGK2): 106%; remaining activity at 0.5 µM (SRPK1): 101%; remaining activity at 0.5 µM (TGFBR2): 97.1%; remaining activity at 0.5 µM (WEE1): 105%; remaining activity at 0.5 µM (WNK3): 77.7%
